Measured values taken from patent publication US11172673B2, “Platelet storage methods and compositions for same” (Children's Hospital Medical Center, priority 2014, dated 2021).
“Also recorded” adds a separate entry of the source.

Columns and labels:
platelets [1] = test: Platelet actin filopodia structure / shape change, rhodamine-phalloidin staining; assay type: cell-based, human; details: Casin 10 μM, platelets adhered to coated collagen surface, FIG. 3C
Method: FIG. 3C. Fibrinogen mediated platelet actin filopedia structure is blocked by Casin (10 μM). Rhodamine conjugated phalloidin-staining of platelets adhered to coated collagen surface.
(§1) Applicant has tested the ability of three chemical inhibitors, CASIN, NSC23766 and G04, targeting Cdc42, Rac1 and RhoA, respectively (FIG. 2), to inhibit the activity of the GTPases and the consequent cytoskeleton-dependent functions of human platelets. A rationally developed inhibitor of Cdc42 with activity on activation by guanine nucleotide exchange factors is CASIN (29, Nature Biotech under revision). CASIN was recently discovered by Zheng group as a small molecule that recognizes a pocket domain that specifically blocks the ability of GEF interaction with Cdc42 (FIG. 3A). CASIN is found to suppress of hematopoietic stem cell aging through its specific Cdc42 inhibitory activity (29). In platelets, it inhibits Cdc42 activation (FIG. 3B) and prevents collagen-induced platelet shape changes (FIG. 3C).

[2] = test system: C57Bl/6 murine carboxyfluorescein-labeled platelets; test: Recovery and survival of refrigerated platelets after infusion in congenic mice; assay type: in vivo; details: for Platelet 24-hour recovery in vivo / Platelet survival in vivo: refrigerated platelets stored at 0° C.; for Platelet 24-hour recovery in vivo: FIG. 6B; for Platelet survival in vivo: FIG. 6C
Method: FIG. 6C-FIG. 6D. Platelet recovery at different time points. Donor platelets were stored at room temperature (squares) or pretreated with a mixed Rho GTPase inhibitors (50 μM NSC23766, 10 μM CASIN and/or 75 μM G04) or no drug (control). Data are presented as mean SD. *p<0.01 (Anova test with Bonferroni correction, between refrigerated with no inhibitor and refrigerated with triple inhibitor combination).
FIG. 7 depicts effects of Rho GTPase inhibitor combinations on platelet survival upon transfusion. Platelet recovery at different time points is shown. Donor platelets were stored at room temp (squares) or pretreated with a mixed Rho GPase inhibitors (50 uM NSC23766, 10 uM CASIN and/or 75 uM G04) or no drug (Ctrl). Data are presented as mean±SD. *p<0.01 (Anova test with Bonferroni correction, between refrigerated with no inhibitor and refrigerated with triple inhibitor combination).
A combination of CASIN (10 μM), G04 (75 μM) and/or NSC23766 were used in C57Bl/6 murine carboxyfluorescein-labeled platelets incubated at 0° C. or 5° C. for 3.5 hours. After re-warming, platelets were infused in 5 congenic mice (per group) and compared with control (room temperature stored) and refrigerated, untreated platelet group (FIG. 7). […] In a second experiment focused on the specific combinations with more activity to reverse the survival impairment associated with the use of Rho GTPase inhibitors, we analyzed the 24-hour recovery (%) and survival (hours) of platelets that had been stored in presence of several combinations of drugs (FIG. 6A).

Cdc42 = molecular target: T1, Cdc42 (Homo sapiens, UniProt P60953); test: Cdc42 activation in platelets, GST-PAK pulldown assay; assay type: cell-based; details: Casin 10 μM, FIG. 3B
T1 construct: endogenous in cells; host or cells: human platelets
Method: FIG. 3B. Collagen-induced Cdc42 activation is inhibited by Casin (10 μM) in a GST-PAK pulldown assay.
as §1

hematopoietic stem cell = details: cited from earlier work
platelets [3] = test: Collagen induced platelet aggregation; assay type: cell-based, human; details: for Reversibility of aggregation block upon a wash of the inhibitor treated platelets: up to 30 μM Casin, FIG. 3D lower panel
Method: FIG. 3D. Collagen induced aggregation is blocked by 10 μM Casin (upper panel) and is reversible (up to 30 μM Casin) upon a wash of the inhibitor treated platelets (lower panel).
FIG. 4D. Collagen induced aggregation is blocked by NSC23766 in a dose-dependent fashion.
FIG. 4E. Inhibition of collagen induced platelet aggregation by NSC23766 (50 μM) is reversible upon a wash of the inhibitor treated platelets.
(§2) FIG. 5D. Collagen induced aggregation is inhibited by G04 (upper panel). Similar to collagen, thrombin induced aggregation (data not shown) is blocked by G04 in a dose-dependent fashion (upper panel) and is reversible upon a wash of the inhibitor treated platelets (lower panel).
as §1, with “3C). […]” for “3C).”
(§3) Finally, G04/Rhosin was also developed by us as a RhoA GTPase activation site inhibitor that transiently and specifically blocks RhoA activity and RhoA-mediated signaling functions (36, 37). […] Effect by collagen or thrombin is reversible (FIG. 5D, lower).

RhoA [4] = molecular target: T2, RhoA (Homo sapiens, UniProt P61586); test: Collagen-induced RhoA activity in platelets, GST-Rhotekin pulldown assay; assay type: cell-based; design: endogenous in cells; host or cells: human platelets; details: G04 50 μM, FIG. 5B
Method: FIG. 5B. Collagen-induced RhoA activity is inhibited by Go4 (50 μM) in a GST-Rhotekin pulldown assay.
as §3
Target sequence in this assay (P61586 whole entry): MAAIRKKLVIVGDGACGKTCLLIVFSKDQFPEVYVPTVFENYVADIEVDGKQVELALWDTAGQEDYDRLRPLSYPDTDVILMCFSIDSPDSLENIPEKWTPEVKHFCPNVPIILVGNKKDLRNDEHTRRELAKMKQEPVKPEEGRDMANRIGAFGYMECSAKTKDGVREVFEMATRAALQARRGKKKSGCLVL

RhoA [5] = molecular target: T2, RhoA; details: cited from earlier work
Target sequence in this assay (P61586 whole entry, species assumed): as the sequence (P61586 whole entry) above

RhoA [6] = molecular target: T2, RhoA; details: binding to surface area sandwiching Trp58 of RhoA; cited from earlier work
Target sequence in this assay (P61586 whole entry, species assumed): as the sequence (P61586 whole entry) above

platelets [7] = test: Thrombin induced platelet aggregation; assay type: cell-based, human
Source text: as §2, §3

platelets [8] = test: Platelet actin lamellopodia structure / spreading, rhodamine-phalloidin staining; assay type: cell-based, human; details: for Fibrinogen-mediated platelet actin lamellopodia structure: NSC23766 50 μM, FIG. 4C
Method: FIG. 4C. Fibrinogen-mediated platelet actin lamellopodia structure is blocked by NSC23 766 (50 μM). Rhodamine conjugated phalloidin-staining of platelets adhered to coated collagen surface.
FIG. 5C. U46629 ([…]/Fibrinogen (3 μM)-mediated platelet actin lamellopodia structure is blocked by G04 (30 μM). Rhodamine conjugated phalloidin-staining of platelets adhered to coated collagen surface.
Similarly, Applicant has identified an inhibitor of Rac, NSC23766 (30-34), with an ability to impair Rac1 activation by multiple activating signals which may be crucial in platelet signaling associated with GpIb/GpX (35). NSC23766 was discovered in a structure-based virtual screening of compounds that fit into a surface groove of Rac 1 known to be critical for guanine nucleotide exchange factor specification (34) (FIG. 4A).
as §3

T1 sequence (P60953 whole entry): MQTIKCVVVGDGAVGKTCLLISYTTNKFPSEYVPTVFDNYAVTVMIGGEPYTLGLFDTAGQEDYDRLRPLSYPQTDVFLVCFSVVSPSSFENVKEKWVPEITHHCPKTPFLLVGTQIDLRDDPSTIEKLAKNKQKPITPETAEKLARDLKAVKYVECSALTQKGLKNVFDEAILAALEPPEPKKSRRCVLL

With `OCCNC1CCCc2c1[nH]c1ccc(-c3ccccc3)cc21` (stereo not drawn) [CASIN] the “Platelet actin filopodia structure / collagen-induced platelet shape changes” value (platelets [1]) was “prevents”, the “Platelet actin filopodia structure / collagen-induced platelet shape changes” value (platelets [1]; listed as Casin) was “blocked” and the “Platelet 24-hour recovery in vivo” value [2] was “did not improve”. The “Platelet survival in vivo” value [2] was “did not improve”, the “Collagen-induced Cdc42 activation” value (Cdc42) was “inhibits” and the “Collagen-induced Cdc42 activation” value (Cdc42; listed as Casin) was “inhibited”. For the same compound, the “Hematopoietic stem cell aging” value (hematopoietic stem cell) was “suppress”, the Collagen induced aggregation (platelets [3]; 10 μM Casin, FIG. 3D upper panel) was “prevention” and the Collagen induced aggregation (platelets [3]; 10 μM Casin, FIG. 3D upper panel, listed as Casin) was “blocked”. The “Reversibility of aggregation block upon a wash of the inhibitor treated platelets” value (platelets [3]) was “can be reversed” and the “Reversibility of aggregation block upon a wash of the inhibitor treated platelets” value (platelets [3]; listed as Casin) was “reversible”.

In the case of `N[C@H](Cc1c[nH]c2ccccc12)C(=O)N/N=C/c1ccc2nccnc2c1` [G04], the “Collagen-induced RhoA activity” value (RhoA [4]) is reported as “specifically inhibits”, the “Collagen-induced RhoA activity” value (RhoA [4]; listed as Go4) is reported as “inhibited” and the “Platelet 24-hour recovery in vivo” value [2] is reported as “did not improve”. The “Platelet survival in vivo” value [2] was “did not improve”, the “GEF-catalyzed RhoA activation” value (RhoA [5]) was “effectively inhibits” and the Kd (RhoA [6]) was “submicromolar”. For the same compound, the Thrombin induced aggregation (platelets [7]; G04, dose-dependent fashion, data not shown) was “blocked”, the “Reversibility of block of thrombin induced aggregation upon a wash” value (platelets [7]; G04, FIG. 5D lower panel) was “reversible” and the Collagen induced aggregation (platelets [3]; G04, FIG. 5D upper panel) was “inhibited”. The “Reversibility of effect on collagen induced aggregation” value (platelets [3]; G04, wash of inhibitor treated platelets, FIG. 5D lower) was “reversible” and the “U46629/Fibrinogen-mediated platelet actin lamellopodia structure (platelet spreading)” value (platelets [8]; G04 30 μM, U46629 10 mM, Fibrinogen 3 μM, FIG. 5C) was “inhibits; also recorded: blocked”.

With `CCN(CC)CCCC(C)Nc1nc(C)cc(Nc2ccc3nc(C)cc(N)c3c2)n1` (racemic) [NSC23766] the “Reversal of the survival deficiency (storage lesion) induced by refrigerated storage” value ([2]; platelets incubated at 0° C. or 5° C. for 3.5 hours, infused in congenic mice, 50 uM NSC23766, 10 uM CASIN and/or 75 uM G04, FIG. 7) was “did not result in significant reversal”, the “Reversibility of inhibition of collagen induced platelet aggregation upon a wash” value (platelets [3]; NSC23766 50 μM, FIG. 4E) was “reversible” and the Collagen induced aggregation (platelets [3]; NSC23766, dose-dependent fashion, FIG. 4D) was “reversibly inhibits; also recorded: blocked”. For the same compound, the “Fibrinogen-mediated platelet actin lamellopodia structure” value (platelets [8]) was “effectively block” and the “Fibrinogen-mediated platelet actin lamellopodia structure” value (platelets [8]; listed as NSC23 766) was “blocked”.
